These results are taken from patent US8637498B2, “Oxopiperazine-azetidine amides and oxodiazepine-azetidine amides as monoacylglycerol lipase inhibitors” (Janssen Pharmaceutica, NV, priority 2010, dated 2014).

Structures are written as SMILES. Residue numbers refer to the chain shown, from its start. pIC50, pKd: −log10 of the molar value. Read-outs that look alike come from different tables or passages of the source.

The pIC50 is the IC50 on a negative log10 scale, so that one unit is a factor of ten.

Assay [1] concerns the target T1, purified wild type MGL (wt-MGLL 6H-11-313) (Homo sapiens, UniProt Q99685).
T1 construct: wt-MGLL 6H-11-313; 6H (hexahistidine) (N)
T1 sequence (Q99685 1-303): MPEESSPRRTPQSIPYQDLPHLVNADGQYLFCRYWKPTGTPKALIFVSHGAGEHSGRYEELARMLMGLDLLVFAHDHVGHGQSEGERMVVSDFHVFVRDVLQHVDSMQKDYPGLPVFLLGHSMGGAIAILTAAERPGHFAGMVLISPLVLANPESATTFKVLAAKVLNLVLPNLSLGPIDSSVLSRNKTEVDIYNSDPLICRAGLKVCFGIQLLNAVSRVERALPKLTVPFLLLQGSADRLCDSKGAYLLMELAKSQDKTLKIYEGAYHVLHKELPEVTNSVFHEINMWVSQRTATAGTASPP
The experiment in a line: MGL Enzyme Activity Assay (wild type MGL, 4MU-B substrate). The note with it: wild type MGL 5 nM, 4MU-B 10 μM, 37° C.; read-out: MGL wild type inh IC50. The format is biochemical. Here is the method: (§1) All rate-based assays were performed in black 384-well polypropylene PCR microplates (Abgene) in a total volume of 30 μL. Substrate 4-methylumbelliferyl butyrate (4MU-B; Sigma) and either purified mutant MGL (mut-MGLL 11-313 L179S L186S) or purified wild type MGL (wt-MGLL 6H-11-313) were diluted separately into 20 mM PIPES buffer (pH=7.0), containing 150 mM NaCl and 0.001% Tween 20. Compounds of Formula (Ia) and (Ib) were pre-dispensed (50 nL) into the assay plate using a Cartesian Hummingbird prior to adding 4MU-B (25 μL of 1.2× solution to a final concentration of 10 μM) followed by enzyme (5 μL of a 6× solution to a final concentration of 5 nM) to initiate the reaction. Final compound concentrations ranged from 17 to 0.0003 μM. The fluorescence change due to 4MU-B cleavage was monitored with excitation and emission wavelengths of 335 and 440 nm, respectively, and a bandwidth of 10 nm (Safire^2, Tecan) at 37° C. for 5 min.
(§2) The IC50 values for compounds of Formula (Ia) or (Ib) were determined using Excel from a fit of the equation to the concentration-response plot of the fractional activity as a function of inhibitor concentration.

The target in assay [2] is T2, mutant MGL (Homo sapiens, UniProt Q99685, L169S/L176S).
T2 construct: mut-MGLL 11-313 L179S L186S
T2 sequence (Q99685 1-303 L169S/L176S): T1 sequence (Q99685 1-303) with L169S, L176S
The assay can be described thus: MGL ThermoFluor Assay - Mutant. Type of assay: binding. The method, then:
The ThermoFluor (TF) assay is a 384-well plate-based binding assay that measures thermal stability of proteins^1,2. The experiments were carried out using instruments available from Johnson & Johnson Pharmaceutical Research & Development, LLC. TF dye used in all experiments was 1,8-ANS (Invitrogen: A-47). Final TF assay conditions used for MGL studies were 0.07 mg/ml of mutant MGL, 100 μM ANS, 200 mM NaCl, 0.001% Tween-20 in 50 mM PIPES (pH=7.0).
Screening compound plates contained 100% DMSO compound solutions at a single concentration. For follow-up concentration-response studies, compounds were arranged in a pre-dispensed plate (Greiner Bio-one: 781280), wherein compounds were serially diluted in 100% DMSO across 11 columns within a series. Columns 12 and 24 were used as DMSO reference and contained no compound. For both single and multiple compound concentration-repsonse experiments, the compound aliquots (46 nL) were robotically predispensed directly into 384-well black assay plates (Abgene: TF-0384/k) using the Hummingbird liquid handler. Following compound dispension, protein and dye solutions were added to achieve the final assay volume of 3 μL. The assay solutions were overlayed with 1 μL of silicone oil (Fluka, type DC 200: 85411) to prevent evaporation.
Bar-coded assay plates were robotically loaded onto a thermostatically controlled PCR-type thermal block and then heated from 40 to 90° C. degrees at a ramp-rate of 1° C./min for all experiments. Fluorescence was measured by continuous illumination with UV light (Hamamatsu LC6), supplied via fiber optics and filtered through a band-pass filter (380-400 nm; >6 OD cutoff). Fluorescence emission of the entire 384-well plate was detected by measuring light intensity using a CCD camera (Sensys, Roper Scientific) filtered to detect 500±25 nm, resulting in simultaneous and independent readings of all 384 wells. A single image with 20-sec exposure time was collected at each temperature, and the sum of the pixel intensity in a given area of the assay plate was recorded vs temperature and fit to standard equations to yield the Tm^1. • 1. Pantoliano, M. W., Petrella, E. C., Kwasnoski, J. D., Lobanov, V. S., Myslik, J., Graf, E., Carver, T., Asel, E., Springer, B. A., Lane, P., and Salemme, F. R. (2001) J Biomol Screen 6, 429-40. • 2. Matulis, D., Kranz, J. K., Salemme, F. R., and Todd, M. J. (2005) Biochemistry 44, 5258-66.
The Kd values for compounds of Formula (Ia) and (Ib) were determined from a fit of the equation to the concentration-response plot of the fractional activity as a function of Tm. For some experiments, quantitative NMR spectroscopy (qNMR) was used to measure concentration of the initial 100% DMSO compound solutions and, using the same fitting method, qKd values were determined.

Assay [3] addresses T3, MGL (Rattus norvegicus, UniProt Q8R431).
T3 construct: one g rat brain was homogenized; from tissue; host or cells: rat brain homogenate
T3 sequence (Q8R431 1-303): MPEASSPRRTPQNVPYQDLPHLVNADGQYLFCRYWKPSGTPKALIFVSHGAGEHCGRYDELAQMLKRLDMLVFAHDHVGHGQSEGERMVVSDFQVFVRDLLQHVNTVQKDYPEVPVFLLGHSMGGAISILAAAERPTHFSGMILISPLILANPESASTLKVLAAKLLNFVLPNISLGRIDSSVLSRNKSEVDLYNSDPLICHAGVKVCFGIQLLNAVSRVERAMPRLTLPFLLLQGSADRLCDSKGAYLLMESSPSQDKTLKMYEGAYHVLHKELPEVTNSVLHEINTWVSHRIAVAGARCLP
The assay can be described thus: 2-AG Accumulation Assay in rat brain homogenate. Type of assay: biochemical. The note with it: compound @1 μM, 2-AG accumulation as percent of vehicle. Here is the method:
After a 15-min incubation time at 37° C., CaCl2 (final concentration=10 mM) was added and then incubated for 15 min at 37° C. in a total volume of 5 mL. The reactions were stopped with 6 mL organic solvent extraction solution of 2:1 chloroform/methanol. Accumulated 2-AG in the organic phase was measured by a HPLC/MS method, according to the following equation: percent vehicle=(2-AG accumulation in the presence of compound/2-AG accumulation in vehicle)×100.

Assay [4] deals with T4, purified mutant MGL (mut-MGLL 11-313 L179S L186S) (Homo sapiens, UniProt Q99685, L169S/L176S).
T4 construct: mut-MGLL 11-313 L179S L186S
T4 sequence (Q99685 1-303 L169S/L176S): T1 sequence (Q99685 1-303) with L169S, L176S
The experiment in a line: MGL Enzyme Activity Assay (mutant MGL, 4MU-B substrate). The format is biochemical. The note with it: mutant MGL 5 nM, 4MU-B 10 μM, 37° C.; read-out: MGL mutant inh IC50. The method, then: as §1, §2

Setting [5] is: mutant MGL, compound concentration measured by qNMR, read-out: MGL mutant ThermoFluor qKd (using qNMR conc.).
Where [6] appears, read: mutant MGL 0.07 mg/ml, 1,8-ANS dye, read-out: MGL mutant ThermoFluor Kd.

Take `O=C(c1sc2cc(C(F)(F)F)ccc2c1Cl)N1CC(N2CCN(c3cscn3)C(=O)C2)C1` [Cpd 7, 4-(1-{[3-Chloro-6-(trifluoromethyl)-1-benzothiophen-2-yl]carbonyl}azetidin-3-yl)-1-(1,3-thiazol-4-yl)piperazin-2-one]: the negative logarithm of the IC50 (pIC50) in assay [1] is 7.17. Also, the pKd in assay [2] (setting [5]) is 6.73. In addition, the “Rat Brain 2AG % VehCntrl (%) @1 μM” value in assay [3] is recorded as 155%.

Turning to `O=C(c1ccc2c(ccn2-c2ccc(F)cc2)c1)N1CC(N2CCN(c3nccs3)C(=O)C2)C1` [Cpd 5, 4-(1-{[1-(4-Fluorophenyl)-1H-indol-5-yl]carbonyl}azetidin-3-yl)-1-(1,3-thiazol-2-yl)piperazin-2-one], in assay [1], the pIC50 was 8.00. Further, in assay [2] (setting [5]), the pKd was 6.77. The “Rat Brain 2AG % VehCntrl (%) @1 μM” value in assay [3] was determined as 316%.

On to `O=C(c1ccc2c(ccn2-c2ccc(F)cc2)c1)N1CC(N2CCN(c3cscn3)C(=O)C2)C1` [Cpd 6, 4-(1-{[1-(4-Fluorophenyl)-1H-indol-5-yl]carbonyl}azetidin-3-yl)-1-(1,3-thiazol-4-yl)piperazin-2-one], for which the negative logarithm of the IC50 (pIC50) in assay [1] was 7.54. Further, the pKd in assay [2] (setting [5]) is 6.21. The “Rat Brain 2AG % VehCntrl (%) @1 μM” value in assay [3] amounted to 302%.

For the compound `O=C(c1ccc2c(ccn2-c2ccc(C(F)(F)F)cc2)c1)N1CC(N2CCN(c3ncccn3)CC2=O)C1` [Cpd 24, 4-Pyrimidin-2-yl-1-[1-({1-[4-(trifluoromethyl)phenyl]-1H-indol-5-yl}carbonyl)azetidin-3-yl]piperazin-2-one], in assay [1], the pIC50 was 7.42. In assay [2] (setting [6]), the pKd was 6.36. Further, in assay [3], the “Rat Brain 2AG % VehCntrl (%) @1 μM” value came out at 155%.

Regarding `O=C(c1ccc2c(ccn2-c2ccc(C(F)(F)F)cc2)c1)N1CC(N2CCN(c3ncccn3)C(=O)C2)C1` [Cpd 3, 1-Pyrimidin-2-yl-4-[1-({1-[4-(trifluoromethyl)phenyl]-1H-indol-5-yl}carbonyl)azetidin-3-yl]piperazin-2-one], the negative logarithm of the IC50 (pIC50) in assay [1] is 8.22. The pKd in assay [2] (setting [6]) was 7.40. Also, the “Rat Brain 2AG % VehCntrl (%) @1 μM” value in assay [3] was 418%.

For the compound `O=C(c1ccc(-c2ccccc2)cc1)N1CC(N2CCN(c3ccccc3)C(=O)C2)C1` [Cpd 2, 4-(1-([1,1′-biphenyl]-4-carbonyl)azetidin-3-yl)-1-phenylpiperazin-2-one], the pIC50 in assay [4] is 5.37. For the same compound, in assay [2] (setting [6]), the pKd was 4.71.

On to `O=C(c1ccc(Cc2ccccc2)cc1)N1CC(N2CCN(c3ccccc3)C(=O)C2)C1` [Cpd 1, 4-(1-(4-benzylbenzoyl)azetidin-3-yl)-1-phenylpiperazin-2-one], for which, in assay [4], the pIC50 was 5.28. The pKd in assay [2] (setting [6]) was 5.48.
